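Interpolation was linear, between the two tested concentrations surrounding the appropriate level; five concentrations were tested over 48 hours in 96-well plates. GI50: concentration for 50% inhibition of growth. At the TGI there is no net growth.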
Assays:
Assay in all cases: DTP human tumour cell line panel, 48 h
CCRF-CEM leukemia = system: CCRF-CEM leukemia
EKVX NSCLC = system: EKVX NSCLC
HCC-2998 colon = system: HCC-2998 colon
HS 578T breast = system: HS 578T breast
KM12 colon = system: KM12 colon
NCI-H226 lung = system: NCI-H226 lung
SN12C renal = system: SN12C renal
SR leukemia = system: SR leukemia
SW-620 colon = system: SW-620 colon
HOP-92 NSCLC = system: HOP-92 NSCLC

Compound | TGI (CCRF-CEM leukemia) [µM] | TGI (EKVX NSCLC) [µM] | TGI (HCC-2998 colon) [µM] | TGI (HS 578T breast) [µM] | TGI (KM12 colon) [µM] | TGI (NCI-H226 lung) [µM] | TGI (SN12C renal) [µM] | TGI (SR leukemia) [µM] | TGI (SW-620 colon) [µM] | TGI (HOP-92 NSCLC) [µM] | GI50 (CCRF-CEM leukemia) [µM] | GI50 (EKVX NSCLC) [µM] | GI50 (HOP-92 NSCLC) [µM] | GI50 (HS 578T breast) [µM] | GI50 (KM12 colon) [µM] | GI50 (NCI-H226 lung) [µM] | GI50 (SR leukemia) [µM] | GI50 (SW-620 colon) [µM] | GI50 (HCC-2998 colon) [µM] | GI50 (SN12C renal) [µM]
CCOP(=O)(OCC)C(C)(CC)/N=C(\N)NC#N (stereo not given) | > 100 | > 100 | > 100 | > 100 | > 100 | > 100 | > 100 | > 100 | > 100 |  |  |  |  |  |  |  |  |  |  | 
COC(=O)C1Cc2c([nH]c3ccccc23)-c2[nH]c3ccccc3c2CC(NC(C)=O)C(=O)N2CCCC2C(=O)N1 (stereo not given) | > 100 | > 100 | > 100 | > 100 |  | 18.3 | > 100 | > 100 | > 100 |  |  |  |  |  |  |  |  |  |  | 
COc1cccc2c1C(=O)c1c(O)c3c(c(O)c1C2=O)CC(O)(C(C)=O)CC3O (stereo not given) | 23.2 | 20.6 | 11.1 |  | 38.5 | 18.6 | 29.4 |  | 32.7 | 28.9 |  |  |  |  |  |  |  |  |  | 
c1ccc(Sc2nc(Sc3ccccc3)nc(Sc3ccccc3)n2)cc1 | > 100 | > 100 | 37.8 | 75.4 | 29.4 | 77.9 | > 100 | > 100 |  |  |  |  |  |  |  |  |  |  |  | 
COC1=CC(c2ccc[nH]2)=N/C1=C\c1[nH]c(C)c(C)c1CCC(=O)OCc1ccccc1 | 2.59 | 1.9 |  | 1.68 | 1.8 | 2.46 |  | 0.618 | 1.62 | 0.732 | 0.142 | 0.281 | 0.217 | 0.289 | 0.242 | 0.377 | 0.175 | 0.322 |  | 
Cc1ccc(O)cc1 (tested in a mixture with another compound) | > 100 | > 100 | > 100 | > 100 | > 100 | > 100 | > 100 |  | > 100 |  |  |  |  |  |  |  |  |  |  | 
Brc1ccc(C[N+]23CN4CN(CN(C4)C2)C3)cc1 | 62.9 | > 100 | > 100 |  | > 100 |  | 62.4 |  | 82.3 |  |  |  |  |  |  |  |  |  |  | 
CCOC(=O)CCC(C(=O)OCC)n1nnc2ccc(Nc3c(C)[n+]([O-])c4cc(F)c(OCC)cc4[n+]3[O-])cc21 (stereo not given) | > 100 | > 100 |  | > 100 | > 100 | > 100 | > 100 | > 100 | > 100 | > 100 |  |  |  |  |  |  |  |  |  | 
COC(=O)C1CCCN1C(=O)OC(C)(C)C (stereo not given) | > 100 | > 100 | > 100 |  | > 100 | > 100 | > 100 | > 100 | > 100 |  |  |  |  |  |  |  |  |  |  | 
CN1CCN(Cn2nc(-c3cc(F)c(Cl)cc3Cl)oc2=S)CC1 | > 100 | > 100 | > 100 | 86.8 | > 100 | > 100 | > 100 |  | 39.4 | > 100 | 33.4 | > 100 | > 100 | 28.5 | 42.7 | 34.4 |  | 20 | 55.9 | 28.3
N#CC(C#N)C1CN2CCC1CC2 (stereo not given) | > 100 | > 100 | > 100 | > 100 | > 100 | > 100 | > 100 | > 100 | > 100 |  |  |  |  |  |  |  |  |  |  | 
CN(C)CCCN=c1c2ccccc2n(C)c2[nH]c(=O)n(C)c(=O)c12 | 16.8 | 28.9 |  | 52.6 | 42.4 | 18.4 | > 51.6 | 9.3 | 28.1 | > 84.7 |  |  |  |  |  |  |  |  |  | 
O=C1c2ccccc2C(=O)c2c(NCC3CO3)cccc21 (stereo not given) | 7.71 | > 57.6 | > 100 | > 100 | > 76.3 | > 100 | 20.1 |  | 12.7 | > 100 |  |  |  |  |  |  |  |  |  | 
CCC1OC2C(CC=C(C)C)=C3OC(C)(O)C(C)(CC)C(=O)C3=C3OC(=O)C=C1C32 (stereo not given) | > 100 | > 100 | > 100 |  | > 100 | > 100 |  |  | > 100 | 71.2 |  |  |  |  |  |  |  |  |  | 
COc1cc2nc3n(c(=O)c2cc1OC)CCCCC3 | > 100 | > 100 |  | > 100 | > 100 | > 100 | > 100 | > 100 | > 100 | > 100 |  |  |  |  |  |  |  |  |  | 
CCOC(=O)[C@@]12NN=N[C@@H]1[C@H]1CO[C@H](c3ccccc3)N1C2=O | > 100 | 28.8 | 25.7 | 17.8 | 35 |  | 26.8 |  | 25.5 | 8.58 |  |  |  |  |  |  |  |  |  | 
COC(=O)C1=C(C)NC2=C(C(=O)c3ccccc32)C1c1cn[nH]c1-c1ccccc1 (stereo not given) | > 100 | > 100 |  | > 100 | > 100 | > 100 | > 100 | 87.4 | > 100 | > 100 |  |  |  |  |  |  |  |  |  | 
CCc1n[nH]c(=O)n1N=C(c1ccccc1)c1ccccc1 | > 100 | 93.3 |  | > 100 | > 100 | > 100 | > 100 |  | > 100 | > 100 |  |  |  |  |  |  |  |  |  | 
O=P(Nc1cccc(Cl)c1)(Oc1ccccc1)N(CCCl)CCCl (stereo not given) | > 100 | 33.9 | 28.6 |  | 28.6 | 29.6 | 29.1 | > 100 | 30.7 | 24.7 |  |  |  |  |  |  |  |  |  | 
CCSc1[nH]c(NC(=NC(C)C)NC(=O)c2ccccc2)c(C(N)=O)c1C(N)=O | > 10 | > 10 | > 10 |  | > 10 |  | > 10 | > 10 | > 10 | > 10 |  |  |  |  |  |  |  |  |  | 
C=CC(=C)CCC(Br)C(C)(C)Cl (stereo not given) | > 100 | > 100 | > 100 | > 100 | > 100 | > 100 | > 100 |  | > 100 | > 100 |  |  |  |  |  |  |  |  |  | 
Cn1c(=O)oc2cc(C(=S)N3CCCCC3)ccc21 | > 100 | > 100 |  | > 100 | > 100 | > 100 | > 100 | > 100 | > 100 |  |  |  |  |  |  |  |  |  |  | 

— PubChem BioAssay (NCI)
